Consider eleven compounds from PubChem BioAssay AID328 (DTP/NCI, 2004).

Where “and” joins values, the source holds several entries; their conditions need not be identical. Identical values can stand only once. Inconclusive results and toxic doses are left out.

The test deals with BDF1 mice, P388 leukemia ip, median survival T/C. In words: NCI In Vivo Anticancer Drug Screen. Data for tumor model P388 Leukemia (intraperitoneal) in B6D2F1 (BDF1) mice. Conditions: endpoint: median survival time, higher = longer survival. In outline: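 Compound-treated tumour-bearing mice were compared with vehicle-treated controls. Survival was recorded, and the value is the treated-group measurement divided by the control-group measurement (T/C).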

Where [1] appears, read: dose: 100.0 mg/kg/injection, schedule: Q04DX003 (ip), vehicle: saline with Tween-80.
Where [2] appears, read: dose: 200.0 mg/kg/injection, schedule: Q04DX003 (ip), vehicle: saline with Tween-80.
Where [3] appears, read: dose: 400.0 mg/kg/injection, schedule: Q04DX003 (ip), vehicle: saline with Tween-80.
Where [4] appears, read: dose: 40.0 mg/kg/injection, schedule: Q01DX009 (ip), vehicle: saline with Tween-80.
Where [5] appears, read: dose: 50.0 mg/kg/injection, schedule: Q01DX009 (ip), vehicle: saline with Tween-80.
[6] abbreviates: dose: 100.0 mg/kg/injection, schedule: Q01DX009 (ip), vehicle: saline with Tween-80.

In the case of `CC1=C2CC(C)(C)/C=C\C(=O)/C(C)=C\C3=C[C@H](C)C[C@]3(O2)C1=O`, the T/C reads like this: (dose: 0.5 mg/kg/injection, schedule: Q01DX010 (ip), vehicle: carboxymethylcellulose (CMC)) 100 % of control; (dose: 1.0 mg/kg/injection, schedule: Q01DX010 (ip), vehicle: carboxymethylcellulose (CMC)) 100 % of control; (dose: 2.0 mg/kg/injection, schedule: Q01DX010 (ip), vehicle: carboxymethylcellulose (CMC)) 100 % of control; (dose: 4.0 mg/kg/injection, schedule: Q01DX010 (ip), vehicle: carboxymethylcellulose (CMC)) 104 % of control; (dose: 8.0 mg/kg/injection, schedule: Q01DX010 (ip), vehicle: carboxymethylcellulose (CMC)) 95 % of control.
Turning to `O=C(Nc1ccc(Cl)c(Cl)c1)O/N=C/c1ccccn1`, the T/C reads like this: under setting [1], 100 % of control; under setting [2], 90 % of control; under setting [3], 95 % of control.
Consider `Nc1ccc(C(=O)CC(C(=O)O)c2ccccc2)cc1` (stereo not drawn), for which the T/C reads like this: (dose: 100.0 mg/kg/injection, schedule: Q04DX002 (ip), vehicle: saline with Tween-80) 88 % of control; (dose: 200.0 mg/kg/injection, schedule: Q04DX002 (ip), vehicle: saline with Tween-80) 90 % of control; (dose: 400.0 mg/kg/injection, schedule: Q04DX002 (ip), vehicle: saline with Tween-80) 99 % of control.
As for `Clc1ccc2nnnn2n1`, the T/C is, setting by setting: (dose: 16.25 mg/kg/injection, schedule: Q01DX009 (ip), vehicle: saline with Tween-80) 99 % of control; (dose: 32.5 mg/kg/injection, schedule: Q01DX009 (ip), vehicle: saline with Tween-80) 101 % of control; under setting [4], 97 % of control; (dose: 80.0 mg/kg/injection, schedule: Q01DX009 (ip), vehicle: saline with Tween-80) 111 % of control; (dose: 130.0 mg/kg/injection, schedule: Q01DX009 (ip), vehicle: saline with Tween-80) 151 % of control.
Turning to `CC(C)(O)C1C2OC(=O)C1C1(O)CC3OC34C(=O)OC2C14C` (stereo not drawn), the T/C (dose: 12.5 mg/kg/injection, schedule: Q04DX003 (ip), vehicle: saline with Tween-80) is 109 % of control and the T/C (dose: 25.0 mg/kg/injection, schedule: Q04DX003 (ip), vehicle: saline with Tween-80) is 95 % of control.
Turning to `Nc1ncnc2c1ncn2C1OC(CO)C(O)C1O` (stereo not drawn), the T/C reads like this: (dose: 1.56 mg/kg/injection, schedule: Q#A X018 (ip), vehicle: saline with Tween-80) 113 % of control; (dose: 3.13 mg/kg/injection, schedule: Q#A X018 (ip), vehicle: saline with Tween-80) 100 % of control; (dose: 6.25 mg/kg/injection, schedule: Q#A X018 (ip), vehicle: saline with Tween-80) 100 % of control; (dose: 10.0 mg/kg/injection, schedule: Q01DX009 (ip), vehicle: saline with Tween-80) 105 % of control; (dose: 12.5 mg/kg/injection, schedule: Q#A X018 (ip), vehicle: saline with Tween-80) 109 % of control; (dose: 14.0 mg/kg/injection, schedule: Q01DX009 (ip), vehicle: saline) 120 % of control. Besides, the T/C (dose: 20.0 mg/kg/injection, schedule: Q01DX009 (ip), vehicle: saline with Tween-80) was 91 % of control and 100 % of control; the T/C (dose: 25.0 mg/kg/injection, schedule: Q04DX003 (ip), vehicle: saline) is 109 % of control; the T/C under setting [4] is 114 % of control and 122 % of control; the T/C (dose: 50.0 mg/kg/injection, schedule: Q04DX003 (ip), vehicle: saline) was 113 % of control; the T/C (dose: 78.0 mg/kg/injection, schedule: Q01DX009 (ip), vehicle: saline with Tween-80) is 178 % of control; the T/C (dose: 78.6 mg/kg/injection, schedule: Q01DX005 (ip), vehicle: water) is 108 % of control. The T/C is 102 % of control (dose: 78.6 mg/kg/injection, schedule: Q01DX009 (ip), vehicle: water); 109 % of control (dose: 100.0 mg/kg/injection, schedule: Q04DX003 (ip), vehicle: saline); 184 % of control (dose: 110.0 mg/kg/injection, schedule: Q03HX024 (ip), vehicle: saline with Tween-80); 114 % of control (dose: 118.0 mg/kg/injection, schedule: Q01DX005 (ip), vehicle: water); 165 % of control (dose: 118.0 mg/kg/injection, schedule: Q01DX009 (ip), vehicle: saline with Tween-80); 105 % of control (dose: 118.0 mg/kg/injection, schedule: Q01DX009 (ip), vehicle: water). Further, the T/C is 151 % of control and 185 % of control (dose: 160.0 mg/kg/injection, schedule: Q01DX009 (ip), vehicle: saline with Tween-80); 206 % of control (dose: 160.0 mg/kg/injection, schedule: Q03HX024 (ip), vehicle: saline with Tween-80); 111 % of control (dose: 177.0 mg/kg/injection, schedule: Q01DX005 (ip), vehicle: water); 156 % of control and 169 % of control (dose: 177.0 mg/kg/injection, schedule: Q01DX009 (ip), vehicle: saline with Tween-80); 112 % of control (dose: 177.0 mg/kg/injection, schedule: Q01DX009 (ip), vehicle: water); 228 % of control (dose: 240.0 mg/kg/injection, schedule: Q03HX024 (ip), vehicle: saline with Tween-80). Further, the T/C was 117 % of control (dose: 266.0 mg/kg/injection, schedule: Q01DX005 (ip), vehicle: water); 156 % of control and 166 % of control (dose: 266.0 mg/kg/injection, schedule: Q01DX009 (ip), vehicle: saline with Tween-80); 117 % of control (dose: 266.0 mg/kg/injection, schedule: Q01DX009 (ip), vehicle: water); 185 % of control (dose: 320.0 mg/kg/injection, schedule: Q01DX009 (ip), vehicle: saline with Tween-80); 117 % of control (dose: 400.0 mg/kg/injection, schedule: Q01DX005 (ip), vehicle: water); 114 % of control (dose: 400.0 mg/kg/injection, schedule: Q01DX009 (ip), vehicle: water). For the same compound, the T/C (dose: 900.0 mg/kg/injection, schedule: Q01DX009 (ip), vehicle: saline with Tween-80) is 155 % of control and 156 % of control.
As to `CC1CCCC/C1=N/NC(=O)c1ccccc1` (stereo not drawn), the T/C reads like this: under setting [5], 87 % of control; under setting [6], 91 % of control; under setting [1], 95 % of control.
`CCCCSCc1nc2nc(Cl)c(Cl)nc2[nH]1`: the T/C reads like this: under setting [5], 110 % of control; under setting [6], 108 % of control; under setting [1], 109 % of control; (dose: 200.0 mg/kg/injection, schedule: Q01DX009 (ip), vehicle: saline with Tween-80) 91 % of control; under setting [2], 95 % of control; (dose: 400.0 mg/kg/injection, schedule: Q01DX009 (ip), vehicle: saline with Tween-80) 94 % of control. The T/C under setting [3] was 95 % of control.
In the case of `COC(=O)CCCCC(=O)OCC#CC#CCOC(=O)CCCCC(=O)OC`, the T/C reads like this: (dose: 100.0 mg/kg/injection, schedule: Q01DX009 (ip), vehicle: Klucel (hydroxypropylcellulose) (HPC)) 104 % of control; (dose: 100.0 mg/kg/injection, schedule: Q04DX003 (ip), vehicle: Klucel (hydroxypropylcellulose) (HPC)) 104 % of control; (dose: 200.0 mg/kg/injection, schedule: Q01DX009 (ip), vehicle: Klucel (hydroxypropylcellulose) (HPC)) 104 % of control; (dose: 200.0 mg/kg/injection, schedule: Q04DX003 (ip), vehicle: Klucel (hydroxypropylcellulose) (HPC)) 104 % of control; (dose: 400.0 mg/kg/injection, schedule: Q01DX009 (ip), vehicle: Klucel (hydroxypropylcellulose) (HPC)) 109 % of control; (dose: 400.0 mg/kg/injection, schedule: Q04DX003 (ip), vehicle: Klucel (hydroxypropylcellulose) (HPC)) 100 % of control.
For the compound `CN(C)c1ccc(P(c2ccc(N(C)C)cc2)c2ccc(N(C)C)cc2)cc1`, the T/C is, setting by setting: (dose: 3.12 mg/kg/injection, schedule: Q01DX009 (ip), vehicle: Klucel (hydroxypropylcellulose) (HPC)) 96 % of control; (dose: 6.25 mg/kg/injection, schedule: Q01DX009 (ip), vehicle: Klucel (hydroxypropylcellulose) (HPC)) 88 % of control; (dose: 12.5 mg/kg/injection, schedule: Q01DX009 (ip), vehicle: Klucel (hydroxypropylcellulose) (HPC)) 88 % of control; (dose: 12.5 mg/kg/injection, schedule: Q04DX003 (ip), vehicle: Klucel (hydroxypropylcellulose) (HPC)) 91 % of control; (dose: 25.0 mg/kg/injection, schedule: Q04DX003 (ip), vehicle: Klucel (hydroxypropylcellulose) (HPC)) 113 % of control; (dose: 50.0 mg/kg/injection, schedule: Q04DX003 (ip), vehicle: Klucel (hydroxypropylcellulose) (HPC)) 86 % of control.
On to `N/N=C1/CCN2CCCc3cccc1c32`, for which the T/C (dose: 50.0 mg/kg/injection, schedule: Q04DX003 (ip), vehicle: saline with Tween-80) was 100 % of control and the T/C under setting [1] is 110 % of control.
